Measurements from patent US20110224208A1, “NOVEL INHIBITORS OF FLAVIVIRUS REPLICATION” (KATHOLIEKE UNIVERSITEIT LEUVEN, K.U. LEUVEN R&D, priority 2008, published 2011).
≈ marks a conversion by molar mass, not a printed value.

Tested on: HCV replicon I389luc-ubi-neo/NS3-3'/5.1
Test: Anti-HCV replicon assay (luciferase activity) in Huh-5-2 cells
Assay type: cell-based, Hepatitis C virus
Conditions: Hepatitis C virus, Huh-5-2, 72 h, concentration required to inhibit luciferase activity in the replicon system by 50%
Description: Cells were seeded at a density of 7000 cells per well in 96 well View Plate™ (Packard) in medium containing the same components as described above, except for G418. Cells were allowed to adhere and proliferate for 24 hr. At that time, culture medium was removed and serial dilutions of the test compounds were added in culture medium lacking G418. Interferon alfa 2a (500 IU) was included as a positive control. Plates were further incubated at 37° C. and 5% CO2 for 72 hours. Replication of the HCV replicon in Huh-5 cells results in luciferase activity in the cells. Luciferase activity is measured by adding 50 μl of 1×Glo-lysis buffer (Promega) for 15 minutes followed by 50 ul of the Steady-Glo Luciferase assay reagent (Promega). Luciferase activity is measured with a luminometer and the signal in each individual well is expressed as a percentage of the untreated cultures. […] Instead the density of the culture is measured by means of the MTS method (Promega).

Point of comparison: `COCCN1C(=O)c2ccccc2C(C(=O)Nc2ccc3c(c2)CCN3C)C1c1cccs1` (stereo not drawn) [C176, 2-(2-methoxyethyl)-N-(1-methylindolin-5-yl)-1-oxo-3-(thiophen-2-yl)-1,2,3,4-tetrahydroisoquinoline-4-carboxamide], IC50 0.48 µg/mL (≈ 1.04 µM). Against it:
- COCCN1C(=O)c2ccccc2C(C(=O)Nc2cccc(OC)c2)C1c1ccnn1C (stereo not drawn) [C105, 2-(2-methoxyethyl)-N-(3-methoxyphenyl)-3-(1-methyl-1H-pyrazol-5-yl)-1-oxo-1,2,3,4-tetrahydroisoquinoline-4-carboxamide] — 110-fold higher, 50.5 µg/mL (≈ 116 µM)
- COCCN1C(=O)c2ccccc2C(C(=O)Nc2cccc(OC)c2)C1c1cccn1C (stereo not drawn) [C106, 2-(2-methoxyethyl)-N-(3-methoxyphenyl)-3-(1-methyl-1H-pyrrol-2-yl)-1-oxo-1,2,3,4-tetrahydroisoquinoline-4-carboxamide] — 92-fold higher, 44.4 µg/mL (≈ 103 µM)
- COCCN1C(=O)c2ccccc2C(C(=O)Nc2cc(C)nn2C)C1c1cccs1 (stereo not drawn) [C109, N-(1,3-dimethyl-1H-pyrazol-5-yl)-2-(2-methoxyethyl)-1-oxo-3-(thiophen-2-yl)-1,2,3,4-tetrahydroisoquinoline-4-carboxamide] — 90-fold higher, 43.4 µg/mL (≈ 102 µM)
- COCCN1C(=O)c2ccccc2C(C(=O)Nc2cccc(OC(F)(F)F)c2)C1c1cccs1 (stereo not drawn) [C112, 2-(2-methoxyethyl)-1-oxo-3-(thiophen-2-yl)-N-(3-(trifluoromethoxy)phenyl)-1,2,3,4-tetrahydroisoquinoline-4-carboxamide] — 1.5-fold lower, 0.31 µg/mL (≈ 0.632 µM)
- COCCN1C(=O)c2ccccc2C(C(=O)Nc2ccc(OC(F)(F)F)cc2)C1c1cccs1 (stereo not drawn) [C113, 2-(2-methoxyethyl)-1-oxo-3-(thiophen-2-yl)-N-(4-(trifluoromethoxy)phenyl)-1,2,3,4-tetrahydroisoquinoline-4-carboxamide] — 2.5-fold lower, 0.19 µg/mL (≈ 0.387 µM)
- COCCN1C(=O)c2ccccc2C(C(=O)Nc2ccc(C(=O)OC)c(OC)c2)C1c1cccs1 (stereo not drawn) [C114, methyl 2-methoxy-4-(2-(2-methoxyethyl)-1-oxo-3-(thiophen-2-yl)-1,2,3,4-tetrahydroisoquinoline-4-carboxamido)benzoate] — within 1.5-fold, 0.47 µg/mL (≈ 0.95 µM)
- COCCN1C(=O)c2ccccc2C(C(=O)Nc2cccc(-n3cccc3)c2)C1c1cccs1 (stereo not drawn) [C115, N-(3-(1H-pyrrol-1-yl)phenyl)-2-(2-methoxyethyl)-1-oxo-3-(thiophen-2-yl)-1,2,3,4-tetrahydroisoquinoline-4-carboxamide] — 1.7-fold lower, 0.29 µg/mL (≈ 0.615 µM)
- COCCN1C(=O)c2ccccc2C(C(=O)Nc2ccc(N3CCOCC3)cc2)C1c1cccs1 (stereo not drawn) [C121, 2-(2-methoxyethyl)-N-(4-morpholinophenyl)-1-oxo-3-(thiophen-2-yl)-1,2,3,4-tetrahydroisoquinoline-4-carboxamide] — 2.2-fold higher, 1.06 µg/mL (≈ 2.16 µM)
- COCCN1C(=O)c2ccccc2C(C(=O)Nc2ccc(NC(C)=O)cc2)C1c1cccs1 (stereo not drawn) [C129, N-(4-acetamidophenyl)-2-(2-methoxyethyl)-1-oxo-3-(thiophen-2-yl)-1,2,3,4-tetrahydroisoquinoline-4-carboxamide] — 14-fold higher, 6.66 µg/mL (≈ 14.4 µM)
- COCCN1C(=O)c2ccccc2C(C(=O)Nc2ccc3[nH]ncc3c2)C1c1cccs1 (stereo not drawn) [C132, N-(1H-indazol-5-yl)-2-(2-methoxyethyl)-1-oxo-3-(thiophen-2-yl)-1,2,3,4-tetrahydroisoquinoline-4-carboxamide] — 2.1-fold higher, 1 µg/mL (≈ 2.24 µM)
- COCCN1C(=O)c2ccccc2C(C(=O)Nc2cccc(OC)c2)C1C#N (stereo not drawn) [C143, 3-cyano-2-(2-methoxyethyl)-N-(3-methoxyphenyl)-1-oxo-1,2,3,4-tetrahydroisoquinoline-4-carboxamide] — 51-fold higher, 24.3 µg/mL (≈ 64 µM)
- COCCN1C(=O)c2ccccc2C(C(=O)Nc2ccc(Cl)cc2N)C1c1cccs1 (stereo not drawn) [C144, N-(2-amino-4-chlorophenyl)-2-(2-methoxyethyl)-1-oxo-3-(thiophen-2-yl)-1,2,3,4-tetrahydroisoquinoline-4-carboxamide] — 11-fold higher, 5.16 µg/mL (≈ 11.3 µM)
- COCCN1C(=O)c2cc(N)ccc2C(C(=O)Nc2cccc(OC)c2)C1c1cccs1 (stereo not drawn) [C147, 7-amino-2-(2-methoxyethyl)-N-(3-methoxyphenyl)-1-oxo-3-(thiophen-2-yl)-1,2,3,4-tetrahydroisoquinoline-4-carboxamide] — 3.4-fold lower, 0.14 µg/mL (≈ 0.31 µM)
- COCCN1C(=O)c2ccccc2C(C(=O)Nc2nc(C)co2)C1c1cccs1 (stereo not drawn) [C154, 2-(2-methoxyethyl)-N-(4-methyloxazol-2-yl)-1-oxo-3-(thiophen-2-yl)-1,2,3,4-tetrahydroisoquinoline-4-carboxamide] — 7.7-fold higher, 3.68 µg/mL (≈ 8.94 µM)
- COCCN1C(=O)c2ccccc2C(C(=O)Nc2nc(C)c(C)s2)C1c1cccs1 (stereo not drawn) [C156, N-(4,5-dimethylthiazol-2-yl)-2-(2-methoxyethyl)-1-oxo-3-(thiophen-2-yl)-1,2,3,4-tetrahydroisoquinoline-4-carboxamide] — 78-fold higher, 37.4 µg/mL (≈ 84.7 µM)
- COCCN1C(=O)c2ccccc2C(C(=O)Nc2ccc(Oc3ccccc3)nc2)C1c1cccs1 (stereo not drawn) [C158, 2-(2-methoxyethyl)-1-oxo-N-(6-phenoxypyridin-3-yl)-3-(thiophen-2-yl)-1,2,3,4-tetrahydroisoquinoline-4-carboxamide] — 12-fold lower, 0.04 µg/mL (≈ 0.0801 µM)
- COCCN1C(=O)c2ccccc2C(C(=O)Nc2ccncn2)C1c1cccs1 (stereo not drawn) [C162, 2-(2-methoxyethyl)-1-oxo-N-(pyrimidin-4-yl)-3-(thiophen-2-yl)-1,2,3,4-tetrahydroisoquinoline-4-carboxamide] — 7.4-fold higher, 3.56 µg/mL (≈ 8.72 µM)
- COCCN1C(=O)c2ccccc2C(C(=O)Nc2ccc3scnc3c2)C1c1cccs1 (stereo not drawn) [C164, N-(benzo[d]thiazol-5-yl)-2-(2-methoxyethyl)-1-oxo-3-(thiophen-2-yl)-1,2,3,4-tetrahydroisoquinoline-4-carboxamide] — 3.7-fold lower, 0.13 µg/mL (≈ 0.28 µM)
- COCCN1C(=O)c2ccccc2C(C(=O)Nc2ccc(C(C)C)cc2)C1c1cccs1 (stereo not drawn) [C165, N-(4-isopropylphenyl)-2-(2-methoxyethyl)-1-oxo-3-(thiophen-2-yl)-1,2,3,4-tetrahydroisoquinoline-4-carboxamide] — within 1.5-fold, 0.4 µg/mL (≈ 0.892 µM)
- COCCN1C(=O)c2ccccc2C(C(=O)Nc2ccc3nccnc3c2)C1c1cccs1 (stereo not drawn) [C171, 2-(2-methoxyethyl)-1-oxo-N-(quinoxalin-6-yl)-3-(thiophen-2-yl)-1,2,3,4-tetrahydroisoquinoline-4-carboxamide] — 4-fold lower, 0.12 µg/mL (≈ 0.262 µM)
- COCCN1C(=O)c2ccccc2C(C(=O)Nc2cc(-c3ccccc3)[nH]n2)C1c1cccs1 (stereo not drawn) [C182, 2-(2-methoxyethyl)-1-oxo-N-(5-phenyl-1H-pyrazol-3-yl)-3-(thiophen-2-yl)-1,2,3,4-tetrahydroisoquinoline-4-carboxamide] — 45-fold higher, 21.8 µg/mL (≈ 46.1 µM)
- COCCN1C(=O)c2ccccc2C(C(=O)Nc2cc[nH]n2)C1c1cccs1 (stereo not drawn) [C184, 2-(2-methoxyethyl)-1-oxo-N-(1H-pyrazol-3-yl)-3-(thiophen-2-yl)-1,2,3,4-tetrahydroisoquinoline-4-carboxamide] — 110-fold higher, 55 µg/mL (≈ 139 µM)
- COCCN1C(=O)c2ccccc2C(C(=O)Nc2ccc(CN3CCOCC3)cc2)C1c1cccs1 (stereo not drawn) [C188, 2-(2-methoxyethyl)-N-(4-(morpholinomethyl)phenyl)-1-oxo-3-(thiophen-2-yl)-1,2,3,4-tetrahydroisoquinoline-4-carboxamide] — 4.8-fold lower, 0.1 µg/mL (≈ 0.198 µM)
- COCCN1C(=O)c2ccccc2C(C(=O)Nc2nc(-c3ccccc3)ns2)C1c1cccs1 (stereo not drawn) [C194, 2-(2-methoxyethyl)-1-oxo-N-(3-phenyl-1,2,4-thiadiazol-5-yl)-3-(thiophen-2-yl)-1,2,3,4-tetrahydroisoquinoline-4-carboxamide] — 25-fold lower, 0.019 µg/mL (≈ 0.0387 µM)
- COCCN1C(=O)c2ccccc2C(C(=O)Nc2ccc3occc3c2)C1c1cccs1 (stereo not drawn) [C195, N-(benzofuran-5-yl)-2-(2-methoxyethyl)-1-oxo-3-(thiophen-2-yl)-1,2,3,4-tetrahydroisoquinoline-4-carboxamide] — 3.7-fold lower, 0.13 µg/mL (≈ 0.291 µM)
- COCCN1C(=O)c2ccccc2C(C(=O)Nc2cc(C3CC3)nn2C)C1c1cccs1 (stereo not drawn) [C197, N-(3-cyclopropyl-1-methyl-1H-pyrazol-5-yl)-2-(2-methoxyethyl)-1-oxo-3-(thiophen-2-yl)-1,2,3,4-tetrahydroisoquinoline-4-carboxamide] — 8.3-fold higher, 4 µg/mL (≈ 8.88 µM)
- COCCN1C(=O)c2ccccc2C(C(=O)Nc2ccc3c(c2)S(=O)(=O)C=C3)C1c1cccs1 (stereo not drawn) [C198, N-(1,1-dioxobenzo[b]thiophen-6-yl)-2-(2-methoxyethyl)-1-oxo-3-(thiophen-2-yl)-1,2,3,4-tetrahydroisoquinoline-4-carboxamide] — 8.3-fold higher, 4 µg/mL (≈ 8.09 µM)
- COCCN1C(=O)c2ccccc2C(C(=O)Nc2ccc(-n3nc(C)cc3C)cc2)C1c1cccs1 (stereo not drawn) [C201, N-(4-(3,5-dimethyl-1H-pyrazol-1-yl)phenyl)-2-(2-methoxyethyl)-1-oxo-3-(thiophen-2-yl)-1,2,3,4-tetrahydroisoquinoline-4-carboxamide] — 6.2-fold lower, 0.078 µg/mL (≈ 0.156 µM)
- COCCN1C(=O)c2ccccc2C(C(=O)Nc2cccc(-c3cnco3)c2)C1c1cccs1 (stereo not drawn) [C210, 2-(2-methoxyethyl)-N-(3-(oxazol-5-yl)phenyl)-1-oxo-3-(thiophen-2-yl)-1,2,3,4-tetrahydroisoquinoline-4-carboxamide] — 6.7-fold lower, 0.072 µg/mL (≈ 0.152 µM)
- COCCN1C(=O)c2ccccc2C(C(=O)Nc2onc(C)c2C)C1c1cccs1 (stereo not drawn) [C220, N-(3,4-dimethylisoxazol-5-yl)-2-(2-methoxyethyl)-1-oxo-3-(thiophen-2-yl)-1,2,3,4-tetrahydroisoquinoline-4-carboxamide] — 5.6-fold higher, 2.67 µg/mL (≈ 6.27 µM)
- COCCN1C(=O)c2ccccc2C(C(=O)Nc2ccc(-n3cccc3)c(C#N)c2)C1c1cccs1 (stereo not drawn) [C222, N-(3-cyano-4-(1H-pyrrol-1-yl)phenyl)-2-(2-methoxyethyl)-1-oxo-3-(thiophen-2-yl)-1,2,3,4-tetrahydroisoquinoline-4-carboxamide] — 2.3-fold lower, 0.21 µg/mL (≈ 0.423 µM)
- COCCN1C(=O)c2ccccc2C(C(=O)Nc2ccc(Cl)cn2)C1c1cccs1 (stereo not drawn) [C223, N-(5-chloropyridin-2-yl)-2-(2-methoxyethyl)-1-oxo-3-(thiophen-2-yl)-1,2,3,4-tetrahydroisoquinoline-4-carboxamide] — 2.1-fold higher, 1 µg/mL (≈ 2.26 µM)
